Three molecules from publication PMC12337130 (Nature microbiology, 2025) can be followed below.

First the molecules themselves.
B2: GST-vBcl-2 (1–146) with N67D/V117A (domain or fragment)
chain: MDEDVLPGEVLAIEGIFMACGLNEPEYLYHPLLSPIKLYITGLMRDKESLFEAMLANVRFHSTTGIDQLGLSMLQVSGDGNMNWGRALAILTFGSFVAQKLSNEPHLRDFALAVLPAYAYEAIGPQWFRARGGWRGLKAYCTQVLT

One assay addresses vBcl-2–NM23-H2 complex (Human gammaherpesvirus 8, UniProt Q76RI8, N67D/V117A). Description: HTRF protein-protein interaction assay. The assay is classed as binding. (In general: In TR-FRET formats the signal depends on donor and acceptor labels being close together.)
A further assay concerns the target vBcl-2 (Human gammaherpesvirus 8, UniProt Q76RI8, N67D/V117A). Nature of the assay: surface plasmon resonance. The assay is classed as binding.
Assay [1] deals with B2. Nature of the assay: AlphaScreen or HTRF. A general note: Bead proximity is the source of the signal in Alpha formats.
The next assay concerns the target His-NM23-H2 (human, UniProt P22392 1-152). Nature of the assay: AlphaScreen or HTRF.

`Cc1nc(Nc2nc3ccccc3o2)[nH]c(=O)c1C` [VBNI-1, 2-(Benzo[d]oxazol-2-ylamino)-5,6-dimethylpyrimidin-4(3H)-one] registered an IC50 on vBcl-2–NM23-H2 complex of approximately 64 nM. In addition, at vBcl-2, the affinity, expressed as Kd, was 875 nM.

B1: BID BH3 peptide (peptide)
peptide: EDIIRNIARHLAQVGDSMDR
As for B1, the binding result in assay [1] is reported as “binds”.
Consider B2, for which the binding result with His-NM23-H2 is “binds”.

Usually IC50 stands for the point on the concentration scale where inhibition reaches its midpoint. Read a high IC50 as weaker potency. In general, Kd refers to a measure of binding affinity in units of concentration. A low value points to tighter binding.
